This passage reports Ki results from BindingDB's records for doi:10.1016/j.bmc.2004.09.055 (Crefsip, 2005).

pKi: −log10 of the molar value.

Sequence of Aspartate--tRNA ligase (P21889 whole entry): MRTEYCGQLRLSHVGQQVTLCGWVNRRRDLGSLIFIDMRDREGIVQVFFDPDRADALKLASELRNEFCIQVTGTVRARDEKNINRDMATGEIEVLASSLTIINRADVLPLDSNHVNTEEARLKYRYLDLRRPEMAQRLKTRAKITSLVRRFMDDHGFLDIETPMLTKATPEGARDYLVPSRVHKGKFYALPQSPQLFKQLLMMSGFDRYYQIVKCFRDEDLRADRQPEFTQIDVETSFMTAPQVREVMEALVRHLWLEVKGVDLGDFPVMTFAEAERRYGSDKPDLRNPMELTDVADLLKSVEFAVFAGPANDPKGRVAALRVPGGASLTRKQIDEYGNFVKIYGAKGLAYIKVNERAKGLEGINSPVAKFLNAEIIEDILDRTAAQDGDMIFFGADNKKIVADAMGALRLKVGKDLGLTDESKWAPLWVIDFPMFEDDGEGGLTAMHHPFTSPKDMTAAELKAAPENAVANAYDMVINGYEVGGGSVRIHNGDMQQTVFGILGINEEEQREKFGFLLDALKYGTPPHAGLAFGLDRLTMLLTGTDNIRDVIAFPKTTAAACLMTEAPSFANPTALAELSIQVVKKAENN

This assay has as its target Aspartate--tRNA ligase (Escherichia coli (strain K12), UniProt P21889). In words: Determination of the Inhibition Type and Constant (Ki). The following applies: pH 7.5; 37 °C. The method, then: The Km and Kappm for the amino acid substrate were first calculated from Lineweaver-Burk plots. The Ki values were calculated from the Kappm vs [I] plot. The Ki values for the inhibitors with respect for the amino acid substrates were determined by measuring the apparent Km for the amino acid in the presence of saturating concentrations of both ATP and tRNA, and of various fixed concentrations of the inhibitor.
As usually defined, the pKi is −log10 of the Ki, conventionally taken in molar units. `Nc1ncnc2c1ncn2[C@@H]1O[C@H](COP(=O)(O)OC[C@@H](N)CC(=O)O)[C@@H](O)[C@H]1O` [(3S)-3-amino-4-[({[(2R,3S,4R,5R)-5-(6-amino-9H-purin-9-yl)-3,4-dihydroxyoxolan-2-yl]methoxy}(hydroxy)phosphoryl)oxy]butanoic acid]: the pKi was 4.35.
Under `Nc1ncnc2c1ncn2[C@@H]1O[C@H](COS(=O)(=O)NC(=O)C(N)CC(=O)O)[C@@H](O)[C@H]1O` (stereo partly drawn) [3-amino-4-[({[(2R,3S,4R,5R)-5-(6-amino-9H-purin-9-yl)-3,4-dihydroxyoxolan-2-yl]methoxy}sulfonyl)amino]-4-oxobutanoic acid] stands 7.82; under `Nc1ncnc2c1ncn2[C@@H]1O[C@H](COP(=O)(O)CC(=O)C(N)CC(=O)O)[C@@H](O)[C@H]1O` (stereo partly drawn) [3-amino-5-({[(2R,3S,4R,5R)-5-(6-amino-9H-purin-9-yl)-3,4-dihydroxyoxolan-2-yl]methoxy}(hydroxy)phosphoryl)-4-oxopentanoic acid], 6.91.
